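Method: 48-hour compound exposure of cells in 96-well plates, five concentrations, linear interpolation of endpoints. TGI is the concentration that stops growth completely.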
Assays:
Test in all cases: NCI tumour cell line growth inhibition, 48 h
KM20L2 colon = system: KM20L2 colon
XF 498 CNS = system: XF 498 CNS
HOP-62 NSCLC = system: HOP-62 NSCLC
U251 CNS = system: U251 CNS
SN12C renal = system: SN12C renal
MOLT-4 leukemia = system: MOLT-4 leukemia
NCI-H460 lung = system: NCI-H460 lung
RXF 393 renal = system: RXF 393 renal
EKVX NSCLC = system: EKVX NSCLC
SN12K1 renal = system: SN12K1 renal
SF-268 CNS = system: SF-268 CNS
SK-OV-3 ovarian = system: SK-OV-3 ovarian
HOP-18 NSCLC = system: HOP-18 NSCLC
SF-295 CNS = system: SF-295 CNS
HT29 colon = system: HT29 colon
LOX IMVI melanoma = system: LOX IMVI melanoma
DLD-1 colon = system: DLD-1 colon
HCC-2998 colon = system: HCC-2998 colon
MALME-3M melanoma = system: MALME-3M melanoma
SK-MEL-28 melanoma = system: SK-MEL-28 melanoma
SK-MEL-2 melanoma = system: SK-MEL-2 melanoma
HCT-15 colon = system: HCT-15 colon
NCI-H23 lung = system: NCI-H23 lung
K-562 leukemia = system: K-562 leukemia
RPMI-8226 leukemia = system: RPMI-8226 leukemia
IGROV1 ovarian = system: IGROV1 ovarian
NCI-H522 lung = system: NCI-H522 lung
DMS 273 small cell lung = system: DMS 273 small cell lung
SNB-75 CNS = system: SNB-75 CNS
MCF7 breast = system: MCF7 breast
KM12 colon = system: KM12 colon
SW-620 colon = system: SW-620 colon
NCI/ADR-RES ovarian = system: NCI/ADR-RES ovarian
SNB-19 CNS = system: SNB-19 CNS
P388/ADR leukemia = system: P388/ADR leukemia
A549 NSCLC = system: A549 NSCLC
A498 renal = system: A498 renal
SK-MEL-5 melanoma = system: SK-MEL-5 melanoma
COLO 205 colon = system: COLO 205 colon
CAKI-1 renal = system: CAKI-1 renal
UO-31 renal = system: UO-31 renal
SNB-78 CNS = system: SNB-78 CNS
P388 leukemia = system: P388 leukemia
OVCAR-3 ovarian = system: OVCAR-3 ovarian
NCI-H226 lung = system: NCI-H226 lung
UACC-257 melanoma = system: UACC-257 melanoma
SF-539 CNS = system: SF-539 CNS
OVCAR-4 ovarian = system: OVCAR-4 ovarian
OVCAR-8 ovarian = system: OVCAR-8 ovarian
CCRF-CEM leukemia = system: CCRF-CEM leukemia
OVCAR-5 ovarian = system: OVCAR-5 ovarian
HL-60(TB) leukemia = system: HL-60(TB) leukemia
UACC-62 melanoma = system: UACC-62 melanoma
HOP-92 NSCLC = system: HOP-92 NSCLC
HCT-116 colon = system: HCT-116 colon

CC(=O)OC1CCC2(C)C(CCC3C2CCC2(C)C(c4ccc(=O)oc4)C(OC(C)=O)CC32O)C1 (stereo not given)
TGI (KM20L2 colon): 92 nM | TGI (XF 498 CNS): 77.1 nM | TGI (HOP-62 NSCLC): 33.1 nM | TGI (U251 CNS): 137 nM | TGI (SN12C renal): 503 nM | TGI (MOLT-4 leukemia): 22.7 nM | TGI (NCI-H460 lung): 19.7 nM | TGI (RXF 393 renal): 12.8 nM | TGI (EKVX NSCLC): 27.9 nM | TGI (SN12K1 renal): 29.6 nM | TGI (SF-268 CNS): 34.1 nM | TGI (SK-OV-3 ovarian): 103 nM | TGI (HOP-18 NSCLC): 68 nM | TGI (SF-295 CNS): 45.6 nM | TGI (HT29 colon): 527 nM | TGI (LOX IMVI melanoma): 380 nM | TGI (DLD-1 colon): 29.3 nM | TGI (HCC-2998 colon): 153 nM | TGI (MALME-3M melanoma): 17 nM | TGI (SK-MEL-28 melanoma): 497 nM | TGI (SK-MEL-2 melanoma): 91.1 nM | TGI (HCT-15 colon): 31.3 nM | TGI (NCI-H23 lung): 29.6 nM | TGI (K-562 leukemia): 141 nM | TGI (RPMI-8226 leukemia): 59.5 nM | TGI (IGROV1 ovarian): 169 nM | TGI (NCI-H522 lung): 25 nM | TGI (DMS 273 small cell lung): 19.4 nM | TGI (SNB-75 CNS): 80.1 nM | TGI (MCF7 breast): 229 nM | TGI (KM12 colon): 161 nM | TGI (SW-620 colon): 59.3 nM | TGI (NCI/ADR-RES ovarian): 55.5 nM | TGI (SNB-19 CNS): 330 nM | TGI (P388/ADR leukemia): 125000 nM | TGI (A549 NSCLC): 15.7 nM | TGI (A498 renal): 161 nM | TGI (SK-MEL-5 melanoma): 21.6 nM | TGI (COLO 205 colon): 162 nM | TGI (CAKI-1 renal): 19.4 nM | TGI (UO-31 renal): 71.2 nM | TGI (SNB-78 CNS): 112 nM | TGI (P388 leukemia): 125000 nM | TGI (OVCAR-3 ovarian): 23.5 nM | TGI (NCI-H226 lung): 288 nM | TGI (UACC-257 melanoma): 115 nM | TGI (SF-539 CNS): 15 nM | TGI (OVCAR-4 ovarian): 25.3 nM | TGI (OVCAR-8 ovarian): 95.1 nM | TGI (CCRF-CEM leukemia): 55.6 nM | TGI (OVCAR-5 ovarian): 173 nM | TGI (HL-60(TB) leukemia): 114 nM | TGI (UACC-62 melanoma): 50.6 nM | TGI (HOP-92 NSCLC): 72.1 nM | TGI (HCT-116 colon): 36 nM

Source: PubChem BioAssay (NCI)
